Patent US11691972B2, “Compounds for targeted degradation of BRD9” (C4 Therapeutics, Inc., priority 2020, dated 2023)

Target: T1, BRD9 (Homo sapiens, UniProt Q9H8M2)
T1 sequence (Q9H8M2 1-597): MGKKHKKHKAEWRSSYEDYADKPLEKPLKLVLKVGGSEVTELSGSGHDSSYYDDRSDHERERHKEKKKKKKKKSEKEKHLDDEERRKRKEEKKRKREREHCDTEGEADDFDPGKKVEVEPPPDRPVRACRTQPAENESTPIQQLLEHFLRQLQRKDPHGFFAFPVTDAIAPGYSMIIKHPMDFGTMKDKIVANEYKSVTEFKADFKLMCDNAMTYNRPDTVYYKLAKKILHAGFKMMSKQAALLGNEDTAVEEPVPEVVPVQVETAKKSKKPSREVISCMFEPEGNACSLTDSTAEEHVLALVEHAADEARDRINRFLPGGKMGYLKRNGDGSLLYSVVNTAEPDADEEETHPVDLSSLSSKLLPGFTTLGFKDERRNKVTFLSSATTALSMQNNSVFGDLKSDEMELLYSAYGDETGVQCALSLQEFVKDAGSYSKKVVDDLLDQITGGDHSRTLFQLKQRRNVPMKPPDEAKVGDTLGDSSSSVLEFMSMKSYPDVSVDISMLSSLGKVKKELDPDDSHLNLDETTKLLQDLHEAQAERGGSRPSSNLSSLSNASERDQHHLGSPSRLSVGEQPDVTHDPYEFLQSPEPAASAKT
Experiment: HiBiT BRD9 degradation assay in 293T.166 (BRD9-HiBiT) cells
Type: cell-based
Set-up: endogenously expressing BRD9 with HiBiT fusion tag via CRISPR; host or cells: 293T.166 (BRD9-HiBiT), also expressing LgBiT ectopically
Conditions: Table 1; 293T.166 cells, 2.0 hours; class symbols; read-out: HiBiT-Degradation 293T.166 BRD9 2.0 hours (DC50)
Procedure, shortened: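 293T.166 cells carrying endogenous CRISPR BRD9-HiBiT and expressing LgBiT treated 2 h at 37° C. with compounds, 11-point half-log titration from 10 μM in duplicate. Remaining BRD9 measured as lytic HiBiT luminescence; untreated cells as negative control, no-reagent wells as positive control.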

DC50 [nM]	SMILES
< 100	COc1cc(-c2cn(C)c(=O)c3cnccc23)cc(Cl)c1C(=O)N1CCC(N(C)C(=O)N2CCC(c3ccc(NC4CCC(=O)NC4=O)cc3)CC2)CC1 (stereo not shown) [Compound 126, N-[1-[2-chloro-6-methoxy-4-(2-methyl-1-oxo-2,7-naphthyridin-4-yl)benzoyl]-4-piperidyl]-4-[4-[(2,6-dioxo-3-piperidyl)amino]phenyl]-N-methyl-piperidine-1-carboxamide]
< 100	COc1cc(-c2cn(C)c(=O)c(C)c2C)cc(Cl)c1C(=O)N1CCC(CCC2CCN(c3ccc(NC4CCC(=O)NC4=O)cc3F)CC2)CC1 (stereo not shown) [Compound 243]
< 100	COc1cc(-c2cn(C)c(=O)c3cnccc23)cc(Cl)c1CN1CCC(N2CCN(c3ccc(NC4CCC(=O)NC4=O)cc3F)CC2)C(F)(F)C1 (stereo not shown) [Compound 177, 3-[4-[4-[1-[[2-chloro-6-methoxy-4-(2-methyl-1-oxo-2,7-naphthyridin-4-yl)phenyl]methyl]-3,3-difluoro-4-piperidyl]piperazin-1-yl]-3-fluoro-anilino]piperidine-2,6-dione]
< 100	COc1cc(-c2cn(C)c(=O)c3cnccc23)cc(Cl)c1CN1CCC(N2CCN(c3ccc(NC4CCC(=O)NC4=O)cc3Cl)CC2)C(F)(F)C1 (stereo not shown) [Compound 186]
< 100	COc1cc(-c2cn(C)c(=O)c3[nH]ncc23)cc(OC)c1CNc1ccc2c(c1)CCN(C(=O)C1CCN(c3ccc(NC4CCC(=O)NC4=O)cc3)CC1)C2 (stereo not shown) [Compound 170]
< 100	COc1cc(-c2cn(C)c(=O)c3ccc(F)cc23)cc(OC)c1CN1CCN(C(=O)CN2CCC(c3ccc(NC4CCC(=O)NC4=O)cc3)CC2)CC1 (stereo not shown) [Compound 27]
< 100	Cn1cc(-c2ccc(CN3CCc4c(cccc4CN4CCC(c5ccc(NC6CCC(=O)NC6=O)cc5)C(F)(F)C4)C3)c(OC(F)(F)F)c2)c2cn[nH]c2c1=O (stereo not shown) [Compound 101]
< 100	Cn1cc(-c2ccc(C(=O)N3CCC(N4CCN(c5ccc(NC6CCC(=O)NC6=O)cc5F)CC4)C(F)(F)C3)c(OC(F)(F)F)c2)c2ccncc2c1=O (stereo not shown) [Compound 227]
< 100	Cc1c(-c2ccc(C(=O)N3CCC(N(C)C(=O)N4CCC(c5ccc(NC6CCC(=O)NC6=O)cc5)CC4)CC3)c(OC(F)(F)F)c2)cn(C)c(=O)c1C (stereo not shown) [Compound 129]
< 100	COc1cc(-c2cn(C)c(=O)c3cnccc23)cc(OC)c1CN1CCN(C(=O)CC2CCN(c3ccc(NC4CCC(=O)NC4=O)cc3C(F)(F)F)CC2)CC1 (single isomer, unassigned) [Compound 56]
< 100	COc1cc(-c2cn(C)c(=O)c3[nH]ncc23)cc(OC)c1CNc1ccc(CC2CCN(c3ccc(NC4CCC(=O)NC4=O)cc3)CC2)cc1 (stereo not shown) [Compound 205, 3-[4-[4-[[4-[[2,6-dimethoxy-4-(6-methyl-7-oxo-1H-pyrazolo[3,4-c]pyridin-4-yl)phenyl]methylamino]phenyl]methyl]-1-piperidyl]anilino]piperidine-2,6-dione]
< 100	COc1cc(-c2cn(C)c(=O)c3ccccc23)cc(Cl)c1CN1CCC(N2CCC(c3ccc(NC4CCC(=O)NC4=O)cc3F)CC2)C(F)(F)C1 (stereo not shown) [Compound 202]
< 100	COc1cc(-c2cn(C)c(=O)c3[nH]ncc23)cc(Cl)c1C(=O)N1CCc2c(CC3CCN(c4ccc(NC5CCC(=O)NC5=O)cc4F)CC3)ccc(F)c2C1 (stereo not shown) [Compound 240]
< 100	COc1cc(-c2cn(C)c(=O)c3[nH]ncc23)cc(OC)c1CNc1cccc(C(=O)N2CCC(c3ccc(NC4CCC(=O)NC4=O)cc3)CC2)c1 (stereo not shown) [Compound 166, 3-[4-[1-[3-[[2,6-dimethoxy-4-(6-methyl-7-oxo-1H-pyrazolo[3,4-c]pyridin-4-yl)phenyl]methylamino]benzoyl]-4-piperidyl]anilino]piperidine-2,6-dione]
< 100	COc1cc(-c2cn(C)c(=O)c3[nH]ncc23)cc(OC)c1CN1CCN(C(=O)CC2CCN(c3ccc(NC4CCC(=O)NC4=O)cc3C(F)(F)F)CC2)CC12CC2 (stereo not shown) [Compound 58]
< 100	COc1cc(-c2cn(C)c(=O)c3[nH]ncc23)cc(OC)c1CN1CCc2c(cccc2CN2CCC(c3ccc(NC4CCC(=O)NC4=O)cc3)C(F)(F)C2)C1 (stereo not shown) [Compound 95, 3-[4-[1-[[2-[[2,6-dimethoxy-4-(6-methyl-7-oxo-1H-pyrazolo[3,4-c]pyridin-4-yl)phenyl]methyl]-3,4-dihydro-1H-isoquinolin-5-yl]methyl]-3,3-difluoro-4-piperidyl]anilino]piperidine-2,6-dione]
< 100	COc1cc(-c2cn(C)c(=O)c3[nH]ncc23)cc(OC)c1CN1CCN(C(=O)CN2CCC(c3ccc(NC4CCC(=O)NC4=O)c(Cl)c3)CC2)CC1 (stereo not shown) [Compound 10]
< 100	CN(C(=O)N1CCC(c2ccc(NC3CCC(=O)NC3=O)cc2)CC1)C1CCN(Cc2ccc(-c3cn(C)c(=O)c4cc(F)ccc34)cc2OC(F)(F)F)CC1 (stereo not shown) [Compound 114]
< 100	Cc1c(-c2ccc(C(C)N3CCC(C4CCN(c5ccc(NC6CCC(=O)NC6=O)cc5F)CC4)CC3)c(OC(F)(F)F)c2)cn(C)c(=O)c1C (stereo not shown) [Compound 91]
< 100	COc1cc(-c2cn(C)c(=O)c3cnccc23)cc(Cl)c1C(=O)N1CCC(N2CCC(c3ccc(NC4CCC(=O)NC4=O)cc3)C(F)(F)C2)CC1 (stereo not shown) [Compound 228]
< 100	COc1cc(-c2cn(C)c(=O)c(C)c2C)cc(Cl)c1C(=O)N1CCC(C2CCN(c3ccc(NC4CCC(=O)NC4=O)cc3F)CC2)CC1 (stereo not shown) [Compound 208, 3-[4-[4-[1-[2-chloro-6-methoxy-4-(1,4,5-trimethyl-6-oxo-3-pyridyl)benzoyl]-4-piperidyl]-1-piperidyl]-3-fluoro-anilino]piperidine-2,6-dione]
< 100	COc1cc(-c2cn(C)c(=O)c3[nH]ncc23)cc(OC)c1CN1CCC(N2CCN(c3ccc(NC4CCC(=O)NC4=O)cc3F)CC2)C(F)(F)C1 (stereo not shown) [Compound 182]
< 100	COc1cc(-c2cn(C)c(=O)c3[nH]ncc23)cc(Cl)c1CN1CCC(C(=O)Nc2ccc(NC3CCC(=O)NC3=O)cc2F)CC1 (stereo not shown) [Compound 169, 1-[[2-chloro-6-methoxy-4-(6-methyl-7-oxo-1H-pyrazolo[3,4-c]pyridin-4-yl)phenyl]methyl]-N-[4-[(2,6-dioxo-3-piperidyl)amino]-2-fluoro-phenyl]piperidine-4-carboxamide]
< 100	COc1cc(-c2cn(C)c(=O)c3[nH]ncc23)cc(F)c1CN1CCC(CCC2CCN(c3ccc(NC4CCC(=O)NC4=O)cc3)CC2)CC1 (stereo not shown) [Compound 147, 3-[4-[4-[2-[1-[[2-fluoro-6-methoxy-4-(6-methyl-7-oxo-1H-pyrazolo[3,4-c]pyridin-4-yl)phenyl]methyl]-4-piperidyl]ethyl]-1-piperidyl]anilino]piperidine-2,6-dione]
< 100	COc1cc(CN2CCN(C(=O)CN3CCC(c4ccc(NC5CCC(=O)NC5=O)cc4)CC3)CC2)c(OC(C)C)cc1-c1cn(C)c(=O)c2[nH]ncc12 (stereo not shown) [Compound 26]
< 100	COc1cc(-c2cn(C)c(=O)c3[nH]ncc23)cc(OC)c1CN1CCN(CCCC(=O)N2CCC(c3ccc(NC4CCC(=O)NC4=O)cc3)CC2)CC1 (stereo not shown) [Compound 40]
< 100	COc1cc(CN2CCN(C(=O)CN3CCC(c4ccc(NC5CCC(=O)NC5=O)cc4)CC3)CC2)c(OCC(F)F)cc1-c1cn(C)c(=O)c2[nH]ncc12 (stereo not shown) [Compound 25]
< 100	COc1cc(-c2cn(C)c(=O)c3ccccc23)cc(F)c1CN1CCC(N(C)C(=O)N2CCC(c3ccc(NC4CCC(=O)NC4=O)cc3)CC2)CC1 (stereo not shown) [Compound 119]
< 100	COc1cc(-c2cn(C)c(=O)c3[nH]ncc23)cc(OC)c1CC1CCN(C(=O)CN2CCC(c3ccc(NC4CCC(=O)NC4=O)cc3)CC2)CC1 (stereo not shown) [Compound 155, 3-[4-[1-[2-[4-[[2,6-dimethoxy-4-(6-methyl-7-oxo-1H-pyrazolo[3,4-c]pyridin-4-yl)phenyl]methyl]-1-piperidyl]-2-oxo-ethyl]-4-piperidyl]anilino]piperidine-2,6-dione]

Same assay, conditions: Table 1; 293T.166 cells, 2.0 hours; numeric bound; read-out: HiBiT-Degradation 293T.166 BRD9 2.0 hours (DC50)

DC50 [nM]	SMILES
> 800	Cc1c(-c2ccc(C(=O)N3CCC(C4CCN(c5ccc(NC6CCC(=O)NC6=O)cc5F)CC4)CC3)c(OC(F)(F)F)c2)cn(C)c(=O)c1C (single isomer, unassigned) [Compound 213, 3-[3-fluoro-4-[4-[1-[2-(trifluoromethoxy)-4-(1,4,5-trimethyl-6-oxo-3-pyridyl)benzoyl]-4-piperidyl]-1-piperidyl]anilino]piperidine-2,6-dione]

Same assay, conditions: Table 2; 293T.166 cells, 2.0 hours; class symbols; read-out: HiBiT-Degradation 293T.166 BRD9 2.0 hours (DC50)

DC50 [nM]	SMILES
< 100	COc1cc(-c2cn(C)c(=O)c(C)c2C)cc(Cl)c1CN1CCc2c(CC3CCN(c4ccc(NC5CCC(=O)NC5=O)nc4)CC3)cccc2C1 (stereo not shown) [Compound 264, 3-[[5-[4-[[2-[[2-chloro-6-methoxy-4-(1,4,5-trimethyl-6-oxo-3-pyridyl)phenyl]methyl]-3,4-dihydro-1H-isoquinolin-5-yl]methyl]-1-piperidyl]-2-pyridyl]amino]piperidine-2,6-dione]
